PubChem BioAssay AID248 (DTP/NCI, 2004)
Where “and” joins values, the source holds several entries; their conditions need not be identical. Equal values may be shown once. Toxic doses and inconclusive results are not listed.

System: L1210 leukemia ip in BDF1 mice, survival T/C
Assay: NCI In Vivo Anticancer Drug Screen. Data for tumor model L1210 Leukemia (intraperitoneal) in B6D2F1 (BDF1) mice
Settings: endpoint: mean survival time, higher = longer survival
Procedure, shortened: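 Transplantable tumor model; survival measured in treated vs vehicle control mice. Value = treated/control.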

With O=c1cnn(C2OC(CO)C(O)C2O)c(=O)[nH]1 (stereo not drawn) the T/C (dose: 12.5 mg/kg/injection, schedule: Q#A X Z (ip), vehicle: saline) was 160 % of control, the T/C (dose: 25.0 mg/kg/injection, schedule: Q01DX Z (im), vehicle: saline) was 150 % of control and the T/C (dose: 25.0 mg/kg/injection, schedule: Q01DX Z (ip), vehicle: methylcellulose (MC)) was 120 % of control. For the same compound, the T/C (dose: 25.0 mg/kg/injection, schedule: Q01DX Z (ip), vehicle: saline) was 156 % of control, the T/C (dose: 25.0 mg/kg/injection, schedule: Q#A X Z (ip), vehicle: saline) was 156 % of control and the T/C (dose: 32.0 mg/kg/injection, schedule: Q01DX009 (oral), vehicle: saline) was 151 % of control. The T/C (dose: 50.0 mg/kg/injection, schedule: Q01DX010 (ip), vehicle: saline) was 120 % of control, the T/C (dose: 50.0 mg/kg/injection, schedule: Q01DX Z (im), vehicle: saline) was 156 % of control and the T/C (dose: 50.0 mg/kg/injection, schedule: Q01DX Z (ip), vehicle: methylcellulose (MC)) was 120 % of control. For the same compound, the T/C (dose: 50.0 mg/kg/injection, schedule: Q01DX Z (ip), vehicle: saline) was 159 % of control, the T/C (dose: 50.0 mg/kg/injection, schedule: Q01DX Z (oral), vehicle: other) was 158 % of control and the T/C (dose: 50.0 mg/kg/injection, schedule: Q#A X Z (ip), vehicle: saline) was 164 % of control. The T/C (dose: 75.0 mg/kg/injection, schedule: Q01DX005 (ip), vehicle: saline) was 112 % of control, the T/C (dose: 88.0 mg/kg/injection, schedule: Q01DX Z (ip), vehicle: methylcellulose (MC)) was 122 % of control and the T/C (dose: 100.0 mg/kg/injection, schedule: Q01DX010 (ip), vehicle: saline) was 123 % of control. The T/C (dose: 100.0 mg/kg/injection, schedule: Q01DX Z (ip), vehicle: methylcellulose (MC)) was 116 % of control, the T/C (dose: 100.0 mg/kg/injection, schedule: Q01DX Z (oral), vehicle: saline) was 151 % of control and the T/C (dose: 100.0 mg/kg/injection, schedule: Q#A X Z (ip), vehicle: saline) was 176 % of control. The T/C (dose: 128.0 mg/kg/injection, schedule: Q03HX016 (oral), vehicle: saline) was 116 % of control, the T/C (dose: 132.0 mg/kg/injection, schedule: Q01DX Z (ip), vehicle: methylcellulose (MC)) was 117 % of control and the T/C (dose: 150.0 mg/kg/injection, schedule: Q01DX005 (ip), vehicle: saline) was 115 % of control. The T/C (dose: 150.0 mg/kg/injection, schedule: Q01DX Z (oral), vehicle: saline) was 172 % of control, the T/C (dose: 150.0 mg/kg/injection, schedule: Q## X003 (ip), vehicle: saline) was 105 % of control and the T/C (dose: 152.0 mg/kg/injection, schedule: Q## X024 (ip), vehicle: saline) was 123 % of control. The T/C (dose: 180.0 mg/kg/injection, schedule: Q01DX009 (ip), vehicle: saline) was 120 % of control, the T/C (dose: 200.0 mg/kg/injection, schedule: Q#A X Z (ip), vehicle: saline) was 176 % of control and the T/C (dose: 256.0 mg/kg/injection, schedule: Q03HX016 (ip), vehicle: saline) was 153 % of control. The T/C (dose: 300.0 mg/kg/injection, schedule: Q01DX005 (ip), vehicle: saline) was 118 % of control, the T/C (dose: 300.0 mg/kg/injection, schedule: Q01DX009 (oral), vehicle: saline) was 123 % of control and the T/C (dose: 300.0 mg/kg/injection, schedule: Q01DX Z (oral), vehicle: saline) was 159 % of control. For the same compound, the T/C (dose: 300.0 mg/kg/injection, schedule: Q03DX Z (ip), vehicle: other) was 119 % of control, the T/C (dose: 300.0 mg/kg/injection, schedule: Q## X003 (ip), vehicle: saline) was 106 % of control and the T/C (dose: 304.0 mg/kg/injection, schedule: Q## X024 (ip), vehicle: saline) was 151 % of control. The T/C (dose: 350.0 mg/kg/injection, schedule: Q01DX001 (ip), vehicle: saline) was 109 % of control, the T/C (dose: 350.0 mg/kg/injection, schedule: Q07DX Z (ip), vehicle: saline) was 109 % of control and the T/C (dose: 400.0 mg/kg/injection, schedule: Q01DX Z (oral), vehicle: other) was 191 % of control. For the same compound, the T/C (dose: 400.0 mg/kg/injection, schedule: Q#A X Z (ip), vehicle: saline) was 158 % of control, the T/C (dose: 512.0 mg/kg/injection, schedule: Q03HX016 (ip), vehicle: saline) was 162 % of control and the T/C (dose: 512.0 mg/kg/injection, schedule: Q03HX016 (oral), vehicle: saline) was 158 % of control. For the same compound, the T/C (dose: 600.0 mg/kg/injection, schedule: Q01DX001 (ip), vehicle: saline) was 101 % of control, the T/C (dose: 600.0 mg/kg/injection, schedule: Q01DX001 (oral), vehicle: saline) was 109 % of control and the T/C (dose: 600.0 mg/kg/injection, schedule: Q01DX001 (sc), vehicle: saline) was 106 % of control. The T/C (dose: 600.0 mg/kg/injection, schedule: Q01DX005 (ip), vehicle: saline) was 121 % of control, the T/C (dose: 600.0 mg/kg/injection, schedule: Q01DX009 (oral), vehicle: saline) was 118 % of control and the T/C (dose: 600.0 mg/kg/injection, schedule: Q01DX Z (oral), vehicle: saline) was 154 % of control. For the same compound, the T/C (dose: 600.0 mg/kg/injection, schedule: Q## X002 (ip), vehicle: saline) was 98 % of control, the T/C (dose: 600.0 mg/kg/injection, schedule: Q## X003 (ip), vehicle: saline) was 107 % of control and the T/C (dose: 600.0 mg/kg/injection, schedule: Q## X008 (ip), vehicle: saline) was 119 % of control. For the same compound, the T/C (dose: 600.0 mg/kg/injection, schedule: Q## X016 (ip), vehicle: saline) was 117 % of control, the T/C (dose: 700.0 mg/kg/injection, schedule: Q01DX001 (ip), vehicle: saline) was 113 % of control and 116 % of control and the T/C (dose: 700.0 mg/kg/injection, schedule: Q07DX Z (ip), vehicle: other) was 111 % of control. For the same compound, the T/C (dose: 700.0 mg/kg/injection, schedule: Q07DX Z (ip), vehicle: saline) was 113 % of control, the T/C (dose: 800.0 mg/kg/injection, schedule: Q01DX009 (ip), vehicle: saline) was 110 % of control and the T/C (dose: 800.0 mg/kg/injection, schedule: Q01DX Z (im), vehicle: saline) was 151 % of control. For the same compound, the T/C (dose: 800.0 mg/kg/injection, schedule: Q## X000 (other), vehicle: other) was 107 % of control, the T/C (dose: 800.0 mg/kg/injection, schedule: Q#A X Z (ip), vehicle: saline) was 101 % of control and the T/C (dose: 1024.0 mg/kg/injection, schedule: Q03HX016 (ip), vehicle: saline) was 176 % of control. For the same compound, the T/C (dose: 1024.0 mg/kg/injection, schedule: Q03HX016 (oral), vehicle: saline) was 161 % of control, the T/C (dose: 1200.0 mg/kg/injection, schedule: Q01DX001 (oral), vehicle: saline) was 112 % of control and the T/C (dose: 1200.0 mg/kg/injection, schedule: Q01DX001 (sc), vehicle: saline) was 110 % of control. For the same compound, the T/C (dose: 1200.0 mg/kg/injection, schedule: Q01DX009 (ip), vehicle: saline) was 98 % of control, the T/C (dose: 1200.0 mg/kg/injection, schedule: Q01DX009 (oral), vehicle: saline) was 100 % of control and the T/C (dose: 1200.0 mg/kg/injection, schedule: Q01DX009 (sc), vehicle: saline) was 94 % of control. The T/C (dose: 1200.0 mg/kg/injection, schedule: Q01DX Z (oral), vehicle: saline) was 104 % of control, the T/C (dose: 1200.0 mg/kg/injection, schedule: Q03DX Z (ip), vehicle: other) was 158 % of control and the T/C (dose: 1200.0 mg/kg/injection, schedule: Q## X002 (ip), vehicle: saline) was 110 % of control. For the same compound, the T/C (dose: 1200.0 mg/kg/injection, schedule: Q## X003 (ip), vehicle: saline) was 114 % of control, the T/C (dose: 1200.0 mg/kg/injection, schedule: Q## X008 (ip), vehicle: saline) was 123 % of control and the T/C (dose: 1200.0 mg/kg/injection, schedule: Q## X024 (ip), vehicle: saline) was 155 % of control. The T/C (dose: 1400.0 mg/kg/injection, schedule: Q01DX001 (ip), vehicle: saline) was 115 % of control and 116 % of control, the T/C (dose: 1400.0 mg/kg/injection, schedule: Q07DX Z (ip), vehicle: other) was 117 % of control and the T/C (dose: 1600.0 mg/kg/injection, schedule: Q01DX009 (ip), vehicle: saline) was 92 % of control. For the same compound, the T/C (dose: 1600.0 mg/kg/injection, schedule: Q01DX Z (oral), vehicle: other) was 96 % of control, the T/C (dose: 1600.0 mg/kg/injection, schedule: Q01DX Z (oral), vehicle: saline) was 98 % of control and the T/C (dose: 2048.0 mg/kg/injection, schedule: Q03HX016 (ip), vehicle: saline) was 174 % of control. The T/C (dose: 2400.0 mg/kg/injection, schedule: Q01DX001 (oral), vehicle: saline) was 117 % of control, the T/C (dose: 2400.0 mg/kg/injection, schedule: Q01DX001 (sc), vehicle: saline) was 115 % of control and the T/C (dose: 2400.0 mg/kg/injection, schedule: Q03DX Z (ip), vehicle: other) was 151 % of control. For the same compound, the T/C (dose: 2400.0 mg/kg/injection, schedule: Q## X002 (ip), vehicle: saline) was 107 % of control, the T/C (dose: 2400.0 mg/kg/injection, schedule: Q## X024 (ip), vehicle: saline) was 153 % of control and the T/C (dose: 2800.0 mg/kg/injection, schedule: Q01DX001 (ip), vehicle: saline) was 121 % of control. For the same compound, the T/C (dose: 2800.0 mg/kg/injection, schedule: Q07DX Z (ip), vehicle: other) was 124 % of control and the T/C (dose: 3200.0 mg/kg/injection, schedule: Q01DX Z (im), vehicle: saline) was 87 % of control.
